# Measurements: patent US10464896B2, “Efflux-pump inhibitors and therapeutic uses thereof” (Basilea Pharmaceutica International AG, priority 2015, dated 2019)
# Test system: E. coli ATCC25922
# Assay: Antibacterial activity in combination with minocycline (growth inhibition)
# Type: cell-based
# Conditions: Escherichia coli, ATCC25922, compound at 25 μM; minocycline 0.25 μg/mL; OD625 23 h minus 1 h; read-out: residual growth of E. coli ATCC25922 (% of uninhibited control) with minocycline
# Method: Antibacterial activity in combination with minocycline or with linezolid
# Inhibition of growth was measured with E. coli ATCC25922 and P. aeruginosa PAO1 in a 96-well plate format. Cation-adjusted Müller-Hinton broth (caMHB) was inoculated with an overnight culture and incubated at 37° C. on a shaker until OD625 reached 0.6 to 0.7. Density was adjusted to OD600=0.5 by addition of caMHB. 35 μL of the suspension were diluted to 35 mL with caMHB and supplemented with minocycline at the subinhibitory doses of 0.25 μg/mL for E. coli and 8 μg/mL for P. aeruginosa or with linezolid at the subinhibitory dose of 128 μg/mL for E. coli and P. aeruginosa. Each well contained 1 μL of test compound in 100 μL caMHB with minocycline or with linezolid.
# Plates were incubated at 37° C. on a plate shaker. OD625 was measured at 1 h, 6 h, and at 23 h.
# The difference between OD at 23 h and at 1 h was taken as measure for cell density and compared to controls without inhibitor (i.e. uninhibited control). Results were expressed as residual growth (% of uninhibited control). Enhancement of minocycline or linezolid activity caused reduced residual growth.
row,Structure (SMILES),activity at 25 µM [%]
1,Clc1ccc(COc2cccc(CNCC3CNC3)c2)c(Br)c1 [Example 18],≤ 10
2,Clc1ccc(-c2ccc(CNCC3CNC3)cc2)cc1 [Example 25],≤ 10
3,CC(C)(c1ccccc1)c1ccc(OCCCNCC2CNC2)cc1 [Example 29],≤ 10
4,Clc1ccc(COc2cccc(CNCC3CCNC3)c2)c(Br)c1 (stereo not drawn) [Example 30],≤ 10
5,CC(C)(c1ccccc1)c1ccc(OCCCNCC2CCNCC2)cc1 [Example 31],≤ 10
6,CC(C)(c1ccccc1)c1ccc(OCCCNCC2CCNC2)cc1 (stereo not drawn) [Example 32],≤ 10
7,Clc1ccc(COc2ccccc2CNCC2CNC2)c(Br)c1 [Example 33],≤ 10
8,Fc1ccc(COc2cccc(CNCC3CNC3)c2)c(F)c1 [Example 34],≤ 10
9,Clc1ccc(COc2cccc(CNCC3CCNCC3)c2)c(Br)c1 [Example 35],≤ 10
10,"Clc1cc(CNCC2CNC2)cc(OCc2ccc(Cl)cc2Br)c1 [Example 37, N-(azetidin-3-ylmethyl)-1-[3-[(2-bromo-4-chloro-phenyl)methoxy]-5-chloro-phenyl]methanamine]",≤ 10
11,Clc1ccc(OCc2cccc(CNCC3CNC3)c2)c(Br)c1 [Example 38],≤ 10
12,CC(C)(c1ccccc1)c1ccc(OCCNCC2CCNCC2)cc1 [Example 39],≤ 10
13,Clc1cc(Cl)cc(COc2cccc(CNCC3CNC3)c2)c1 [Example 40],≤ 10
14,Brc1ccccc1COc1cccc(CNCC2CNC2)c1 [Example 41],≤ 10
15,CC(C)(c1ccccc1)c1ccc(OCCNCC2CCNC2)cc1 (stereo not drawn) [Example 42],≤ 10
16,Fc1cc(F)cc(COc2cccc(CNCC3CNC3)c2)c1 [Example 43],≤ 10
17,CC(C)(c1ccccc1)c1ccc(CNCC2CCNC2)cc1 (stereo not drawn) [Example 44],≤ 10
18,CC(C)(c1ccccc1)c1ccc(CNCC2CNC2)cc1 [Example 45],≤ 10
19,CC(C)(c1ccccc1)c1ccc(CNCC2CCNCC2)cc1 [Example 46],≤ 10
20,FC(F)(F)c1cc(Br)ccc1COc1cccc(CNCC2CNC2)c1 [Example 47],≤ 10
21,FC(F)(F)c1ccc(COc2cccc(CNCC3CNC3)c2)c(Cl)c1 [Example 49],≤ 10
22,"Clc1ccc(CSc2cccc(CNCC3CNC3)c2)c(Br)c1 [Example 51, N-(azetidin-3-ylmethyl)-1-[3-[(2-bromo-4-chloro-phenyl)methylsulfanyl]phenyl]methanamine]",≤ 10
23,Fc1cc(Br)ccc1COc1ccc(CNCC2CCNCC2)cc1 [Example 52],≤ 10

row,Structure (SMILES),activity at 25 µM [%]
1,Clc1ccc(OCc2cccc(CNC3CCNCC3)c2)c(Br)c1 [Example 53],≤ 10
2,Fc1cc(Br)ccc1COc1ccc(CNCC2CCNC2)cc1 (stereo not drawn) [Example 55],≤ 10
3,Fc1cc(Br)ccc1COc1ccc(CNCC2CNC2)cc1 [Example 56],≤ 10
4,Clc1ccc(OCc2cccc(CCNCC3CNC3)c2)c(Br)c1 [Example 58],≤ 10
5,CC(C)(C)c1ccc(COc2ccc(CNC3CCNCC3)cc2)cc1 [Example 59],≤ 10
6,Fc1cc(Br)ccc1COc1ccc(CNC2CCNCC2)cc1 [Example 60],≤ 10
7,Clc1ccc(/C=C/c2cccc(CNCC3CNC3)c2)c(Br)c1 [Example 61],≤ 10
8,Clc1ccc(-c2ccc(CNCC3CCNC3)cc2)c(Br)c1 (stereo not drawn) [Example 62],≤ 10
9,"Clc1ccc(CCc2cccc(CNCC3CNC3)c2)c(Br)c1 [Example 64, N-(azetidin-3-ylmethyl)-1-[3-[2-(2-bromo-4-chloro-phenyl)ethyl]phenyl]methanamine]",≤ 10
10,Clc1ccc(OCc2cccc(CNCC3CNCCO3)c2)c(Br)c1 (stereo not drawn) [Example 65],≤ 10
11,Clc1ccc(COc2ccc(CNCC3CNC3)cc2)cc1Cl [Example 66],≤ 10
12,Clc1ccc(COc2ccc(CNCC3CCNCC3)cc2)cc1Cl [Example 67],≤ 10
13,"Clc1ccc(-c2ccc(CNCC3CNC3)cc2)c(Br)c1 [Example 68, N-(azetidin-3-ylmethyl)-1-[4-(2-bromo-4-chloro-phenyl)phenyl]methanamine]",≤ 10
14,Clc1ccc(COc2ccc(CNCC3CCNC3)cc2)cc1Cl (stereo not drawn) [Example 70],≤ 10
15,Brc1ccccc1COc1ccc(CNC2CCNCC2)cc1 [Example 71],≤ 10
16,Brc1ccccc1COc1ccc(CNCC2CCNCC2)cc1 [Example 72],≤ 10
17,Clc1ccc(OCc2cccc(CCCNCC3CNC3)c2)c(Br)c1 [Example 73],≤ 10
18,Clc1ccc(-c2cccc(CNCC3CNC3)c2)c(Br)c1 [Example 75],≤ 10
19,Brc1ccccc1COc1ccc(CNCC2CCNC2)cc1 (stereo not drawn) [Example 80],≤ 10
20,Clc1ccc(Oc2ccc(CNCC3CNC3)cc2)c(Br)c1 [Example 81],≤ 10
21,Clc1ccc(Oc2ccccc2CNCC2CCNC2)c(Br)c1 (stereo not drawn) [Example 84],≤ 10
22,N#Cc1ccc(COc2ccc(CNCC3CNC3)cc2)c(Br)c1 [Example 85],≤ 10
23,"Clc1ccc(Oc2cccc(CNCC3CCNC3)c2)c(Br)c1 (stereo not drawn) [Example 88, 1-[3-(2-bromo-4-chloro-phenoxy)phenyl]-N-(pyrrolidin-3-ylmethyl)methanamine]",≤ 10

row,Structure (SMILES),activity at 25 µM [%]
1,Clc1ccc(Oc2cccc(CNCC3CNC3)c2)c(Br)c1 [Example 90],≤ 10
2,c1ccc(-c2cccc(COc3cccc(CNCC4CNC4)c3)c2)cc1 [Example 94],≤ 10
3,c1ccc(-c2ccc(COc3cccc(CNCC4CNC4)c3)cc2)cc1 [Example 95],≤ 10
4,Clc1ccc(OCCOc2ccc(CNCC3CNC3)cc2)c(Br)c1 [Example 96],≤ 10
5,Clc1ccc(COc2ccc(Br)c(CNCC3CNC3)c2)c(Br)c1 [Example 97],≤ 10
6,Fc1cc(CNCC2CNC2)cc(OCc2ccc(Cl)cc2Br)c1 [Example 103],≤ 10
7,FC(F)(F)c1cc(CNCC2CNC2)cc(OCc2ccc(Cl)cc2Br)c1 [Example 104],≤ 10
8,CC(NCC1CNC1)c1ccc(OCc2ccc(Cl)cc2Br)cc1 (stereo not drawn) [Example 105],≤ 10
9,C=CCOc1cc(CNCC2CNC2)cc(OCc2ccc(Cl)cc2Br)c1 [Example 106],≤ 10
10,C=CCOc1cc(CNCC2CCNC2)cc(OCc2ccc(Cl)cc2Br)c1 (stereo not drawn) [Example 108],≤ 10
11,C=CCOc1cc(CNCC2CCNCC2)cc(OCc2ccc(Cl)cc2Br)c1 [Example 109],≤ 10
12,Clc1ccc(COc2cccc(CCCNCC3CNC3)c2)c(Br)c1 [Example 111],≤ 10
13,Clc1ccc(COc2cccc(CCCNCC3CCNC3)c2)c(Br)c1 (stereo not drawn) [Example 112],≤ 10
14,Clc1ccc(COc2ccccc2CCCNCC2CNC2)c(Br)c1 [Example 113],≤ 10
15,Clc1ccc(COc2ccccc2CCCNCC2CCNC2)c(Br)c1 (stereo not drawn) [Example 114],≤ 10
16,Clc1ccc(COc2ccc(CCCNCC3CNC3)cc2)c(Br)c1 [Example 116],≤ 10
17,Clc1ccc(COc2ccc(CCCNCC3CCNC3)cc2)c(Br)c1 (stereo not drawn) [Example 117],≤ 10
18,"O=C(NCc1ccccc1)c1cc(CNCC2CNC2)cc(OCc2ccc(Cl)cc2Br)c1 [Example 119, 3-[(azetidin-3-ylmethylamino)methyl]-N-benzyl-5-[(2-bromo-4-chloro-phenyl)methoxy]-benzamide]",≤ 10
19,Brc1ccc(/C=C/c2ccccc2)cc1OCCCNCC1CNC1 [Example 120],≤ 10
20,Clc1ccc(COc2cccc(CCNCC3CNC3)c2)c(Br)c1 [Example 121],≤ 10
21,Clc1ccc(COc2cccc(CCNCC3CCNC3)c2)c(Br)c1 (stereo not drawn) [Example 122],≤ 10
22,Clc1ccc(COc2ccccc2CCNCC2CCNC2)c(Br)c1 (stereo not drawn) [Example 123],≤ 10

# Same assay, conditions: Escherichia coli, ATCC25922, compound at 50 μM; minocycline 0.25 μg/mL; OD625 23 h minus 1 h; read-out: residual growth of E. coli ATCC25922 (% of uninhibited control) with minocycline
row,Structure (SMILES),activity at 50 µM [%]
1,Clc1ccc(COc2ccccc2CNCC2CCNCC2)cc1 [Example 5],≤ 50
2,Clc1ccccc1COc1ccccc1CNCC1CCNCC1 [Example 8],≤ 50
3,Clc1ccc(COc2cccc(CNCC3CNC3)c2)cc1 [Example 13],≤ 50
4,Clc1ccc(COc2ccccc2CNCC2CNC2)cc1 [Example 22],≤ 50
5,"Clc1ccc(COc2cccc(NCC3CNC3)c2)cc1 [Example 23, N-(azetidin-3-ylmethyl)-3-[(4-chlorophenyl)methoxy]aniline]",≤ 50
6,Clc1ccc(-c2ccccc2CNCC2CCNC2)c(Br)c1 (stereo not drawn) [Example 69],≤ 50

# Same assay, conditions: Escherichia coli, ATCC25922, read-out: residual growth of E. coli ATCC25922 (% of uninhibited control) with minocycline, compound at 25 μM; minocycline 0.25 μg/mL; OD625 23 h minus 1 h
row,Structure (SMILES),activity at 25 µM [%]
1,"Clc1ccc(C=CCc2cccc(CNCC3CNC3)c2)c(Br)c1 (mixture of isomers) [Example 168, N-(azetidin-3-ylmethyl)-1-[3-[(Z/E)-3-(2-bromo-4-chloro-phenyl)allyl]phenyl]methanamine]",≤ 10
